Laboratory results reported in paper PMC10307885, “A Phase 1/2 trial of SRA737 (a Chk1 inhibitor) administered orally in patients with advanced cancer” (British Journal of Cancer, 2023).
Where “and” joins values, the source holds several entries; their conditions need not be identical. Identical values can stand only once. Entries after “also recorded” stand apart in the source; their conditions may differ. Like-named read-outs stand apart in the source and are kept apart here.

Assays:
[1] = Plasma SRA737 pharmacokinetics (LC-MS assay, non-compartmental methods); assay type: in vivo, human; settings: for Cmax / AUC(0-t) / Tmax / Vd/F / half-life: human, oral; for AUC(0-t): read-out: AUC0-24; for Tmax / Vd/F / half-life: plasma
Protocol: Serial sampling of blood for PK assessment was conducted before and after dosing with single-agent SRA737 (9 time points over 48 h) on Day −7 to Day −4 and on Cycle 1 Day 22; in addition, samples were drawn pre-dose on Days 1, 8, and 15 of Cycle 1, and pre-dose on Day 1 of each subsequent cycle. Plasma SRA737 concentrations were quantified using a fully validated liquid chromatography-mass spectrometry assay with a lower limit of quantitation of 5 ng/ml as previously described.
Safety and response variables were summarized using descriptive statistics and PK parameters were determined using non-compartmental methods. A concentration-effect model was used to evaluate the relationship between plasma SRA737 concentrations and the mean change from baseline in QT interval corrected for heart rate using Fridericia’s formula (QTcF) in time-matched ECG measurements and PK samples collected on Day −7 to Day −4 and during Cycle 1.

[2] = test system: advanced solid tumours (CRC, HGSOC, NSCLC, mCRPC, HNSCC); test: Tumour response by RECIST 1.1; assay type: in vivo, human
Protocol: Radiologic tumour assessments were carried out every 8 weeks, and clinical evaluations and serum tumour markers assessed every 4 weeks. Tumours were assessed using the Response Evaluation Criteria in Solid Tumors version 1.1 (RECIST 1.1). Clinical response data were summarized in cohorts defined by tumour type (CRC, HGSOC, NSCLC, mCRPC, HNSCC, or other disease). The Safety Evaluable population included all patients who received at least one dose of SRA737. The Response Evaluable population included patients who had measurable disease at baseline, received at least 75% of planned SRA737 doses in Cycle 1 and had at least one post-baseline disease assessment or discontinued treatment due to disease progression, adverse event, or death.

Chk1 = test system: Chk1; parameters: method as in printed; settings: previously shown in preclinical experiments; ref not given; cited from earlier work
[3] = test system: patients with advanced cancer; settings: in combination with low-dose gemcitabine; anogenital, cervical, high-grade serous ovarian, rectal and small cell lung cancer; cited from earlier work
[4] = 600 mg, repeat doses, N 7, plasma, mean ± standard deviation
[5] = 800 mg, repeat doses, N 31, plasma, mean ± standard deviation
[6] = 1000 mg, repeat doses, N 16, plasma, mean ± standard deviation
[7] = single SRA737 dose, at or above the dose level of 300 mg QD

Q: With `N#Cc1cnc(Nc2cc(NC[C@H]3CNCCO3)c(C(F)(F)F)cn2)cn1` [SRA737, (R)-5-((4-((morpholin-2-ylmethyl)amino)-5-(trifluoromethyl)pyridin-2-yl)amino)pyr azine-2-carbonitrile] as the compound, how does the “Systemic exposure (Cmax and AUC) between dose levels” value ([1]; 600 mg vs 1000 mg dose levels) read?
A: tended to be comparable

Q: What about the CL/F [1, 4] of the same compound?
A: 26.9 ± 2.85 L/h

Q: What about the Cmin [1, 4] of the same compound?
A: 230 ± 123 ng/mL

Q: What about the “Exposure relative to minimum effective concentration extrapolated from preclinical models” value ([1]; 800 mg QD and 1000 mg QD) of the same compound?
A: exceeded the minimum effective concentration

Q: And the Cmin ([1]; 800 mg QD, repeat doses, N 31, plasma, mean ± standard deviation)?
A: 312 ng/mL and 312 ± 166 ng/mL

Q: What about the CL/F [1, 5] of the same compound?
A: 38.0 ± 22.2 L/h

Q: What about the CL/F [1, 6] of the same compound?
A: 39.7 ± 9.20 L/h

Q: What about the Cmin [1, 6] of the same compound?
A: 499 ± 185 ng/mL

Q: And the Cmax [1, 4]?
A: 2470 ± 328 ng/mL

Q: What about the AUC(0-t) [1, 4] of the same compound?
A: 22100 ± 2450 ng·h/mL

Q: And the Cmax [1, 5]?
A: 2480 ± 679 ng/mL

Q: And the AUC(0-t) [1, 5]?
A: 24700 ± 8580 ng·h/mL

Q: What about the Cmax [1, 6] of the same compound?
A: 2490 ± 666 ng/mL

Q: What about the AUC(0-t) [1, 6] of the same compound?
A: 27200 ± 9210 ng·h/mL

Q: And the Tmax ([1]; 600 mg, repeat doses on C1D8, C1D22, C2D8, C2D15 or C2D22, N 7, plasma, median (minimum-maximum), read-out: tmax)?
A: 2 h

Q: What about the Vd/F ([1]; 600 mg, repeat doses, N 7, plasma, mean ± standard deviation, read-out: Vd/F) of the same compound?
A: 320 ± 61.1 L

Q: What about the half-life ([1]; 600 mg, repeat doses, N 7, plasma, mean ± standard deviation, read-out: t½ (converted)) of the same compound?
A: 8.22 ± 1.27 h

Q: What about the Tmax ([1]; 800 mg, repeat doses on C1D8, C1D22, C2D8, C2D15 or C2D22, N 31, plasma, median (minimum-maximum), read-out: tmax) of the same compound?
A: 2 h

Q: And the Vd/F ([1]; 800 mg, repeat doses, N 31, plasma, mean ± standard deviation, read-out: Vd/F)?
A: 454 ± 299 L

Q: And the half-life ([1]; 800 mg, repeat doses, N 31, plasma, mean ± standard deviation, read-out: t½ (converted))?
A: 8.25 ± 1.17 h

Q: What about the Tmax ([1]; 1000 mg, repeat doses on C1D8, C1D22, C2D8, C2D15 or C2D22, N 16, plasma, median (minimum-maximum), read-out: tmax) of the same compound?
A: 2 h

Q: What about the Vd/F ([1]; 1000 mg, repeat doses, N 16, plasma, mean ± standard deviation, read-out: Vd/F) of the same compound?
A: 477 ± 87 L

Q: And the half-life ([1]; 1000 mg, repeat doses, N 16, plasma, mean ± standard deviation, read-out: t½ (converted))?
A: 8.45 ± 1.06 h

Q: What about the half-life ([1]; 1000 mg, repeated doses of 600, 800 and 1000 mg QD, read-out: Estimated elimination half-life (t½) values, range) of the same compound?
A: 6.23 to 10.4 h

Q: And the Tmax ([1]; 1000 mg, repeated doses of 600, 800 and 1000 mg QD, read-out: Tmax, generally occurred)?
A: 2 to 4 h

Q: And the Tmax ([1]; 1000 mg, repeated doses of 600, 800 and 1000 mg QD, read-out: Tmax, ranged)?
A: 1 to 6 h

Q: What about the Vd/F ([1]; 1000 mg, repeated doses of 600, 800 and 1000 mg QD, read-out: individual apparent volume of distribution (Vd/F) values, range) of the same compound?
A: 215 to 1590 L

Q: And the “time plasma concentration of 100 nM (37.9 ng/mL) was achieved, all patients” value [1, 7]?
A: at least 24 h

Q: And the “time plasma concentration of 100 nM (37.9 ng/mL) was achieved, majority of patients” value [1, 7]?
A: up to 48 h

Q: And the “disease control rate (at least four cycles with at least stable disease as best response)” value (“disease control rate” below) ([2]; HGSOC, 11/26)?
A: 42.3%

Q: And the “disease control rate” value ([2]; HNSCC, 3/4)?
A: 75.0%

Q: What about the “disease control rate” value ([2]; NSCLC, 3/8) of the same compound?
A: 37.5%

Q: And the “patients with reduction or no increase in sum of RECIST target tumour diameters and/or stable disease for 4 or more cycles” value ([2]; in vivo)?
A: 29 patients

Q: What about the “reductions in tumour size” value ([2]; in vivo) of the same compound?
A: up to 29 % reduction

Q: And the “disease control rate” value ([2]; mCRPC, 8/13)?
A: 61.5%

Q: What about the “RECIST responses (complete or partial)” value ([2]; monotherapy, expansion cohort patients with predefined genetic mutations) of the same compound?
A: no complete or partial RECIST responses; also recorded: no partial or complete RECIST responses

Q: And the “minimally effective concentration to inhibit Chk1” value (Chk1)?
A: 100 nM and 37.9 ng/mL

Q: And the RECIST tumour responses [3]?
A: RECIST partial tumour responses were observed
